Assay results reported in PubChem BioAssay AID330 (DTP/NCI, 2004).
Where “and” joins values, the source holds several entries; their conditions need not be identical. Equal entries are not always repeated. Toxic doses and inconclusive results are not listed.

System: P388 leukemia ip, CD2F1 mice, survival T/C
Assay: NCI In Vivo Anticancer Drug Screen. Data for tumor model P388 Leukemia (intraperitoneal) in CD2F1 (CDF1) mice
Details: endpoint: median survival time, higher = longer survival
Outline: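 Mice carrying the transplanted tumor received test compound or vehicle. Survival was recorded in each group, and the value is the treated-group measurement divided by that of the vehicle-treated control group.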

[1] = dose: 100.0 mg/kg/injection, schedule: Q01DX001 (ip), vehicle: Klucel (hydroxypropylcellulose) (HPC)
[2] = dose: 200.0 mg/kg/injection, schedule: Q01DX001 (ip), vehicle: Klucel (hydroxypropylcellulose) (HPC)
[3] = dose: 50.0 mg/kg/injection, schedule: Q01DX009 (ip), vehicle: Klucel (hydroxypropylcellulose) (HPC)
[4] = dose: 100.0 mg/kg/injection, schedule: Q01DX009 (ip), vehicle: Klucel (hydroxypropylcellulose) (HPC)
[5] = dose: 200.0 mg/kg/injection, schedule: Q01DX009 (ip), vehicle: Klucel (hydroxypropylcellulose) (HPC)
[6] = dose: 50.0 mg/kg/injection, schedule: Q01DX009 (ip), vehicle: saline with Tween-80
[7] = dose: 100.0 mg/kg/injection, schedule: Q01DX009 (ip), vehicle: saline with Tween-80
[8] = dose: 200.0 mg/kg/injection, schedule: Q01DX009 (ip), vehicle: saline with Tween-80
[9] = dose: 50.0 mg/kg/injection, schedule: Q01DX005 (ip), vehicle: Klucel (hydroxypropylcellulose) (HPC)
[10] = dose: 100.0 mg/kg/injection, schedule: Q01DX005 (ip), vehicle: Klucel (hydroxypropylcellulose) (HPC)
[11] = dose: 200.0 mg/kg/injection, schedule: Q01DX005 (ip), vehicle: Klucel (hydroxypropylcellulose) (HPC)
[12] = dose: 50.0 mg/kg/injection, schedule: Q01DX005 (ip), vehicle: saline with Tween-80
[13] = dose: 100.0 mg/kg/injection, schedule: Q01DX005 (ip), vehicle: saline with Tween-80
[14] = dose: 200.0 mg/kg/injection, schedule: Q01DX005 (ip), vehicle: saline with Tween-80
[15] = dose: 60.0 mg/kg/injection, schedule: Q01DX005 (ip), vehicle: saline with Tween-80
[16] = dose: 120.0 mg/kg/injection, schedule: Q01DX005 (ip), vehicle: saline with Tween-80
[17] = dose: 240.0 mg/kg/injection, schedule: Q01DX005 (ip), vehicle: saline with Tween-80
[18] = dose: 25.0 mg/kg/injection, schedule: Q01DX009 (ip), vehicle: saline with Tween-80
[19] = dose: 12.5 mg/kg/injection, schedule: Q01DX009 (ip), vehicle: saline with Tween-80

## Cc1ccc(C(C(=O)O)(c2ccc(C)c(C)c2)C(O)C(=O)O)cc1C (stereo not given)
[1]
  T/C: 106 % of control
[2]
  T/C: 106 % of control
dose: 400.0 mg/kg/injection, schedule: Q01DX001 (ip), vehicle: Klucel (hydroxypropylcellulose) (HPC)
  T/C: 104 % of control

## CCCCOc1ccc2nc3cc(Cl)ccc3c(Cl)c2n1
dose: 6.25 mg/kg/injection, schedule: Q01DX005 (ip), vehicle: saline with Tween-80
  T/C: 92 % of control
dose: 12.5 mg/kg/injection, schedule: Q01DX005 (ip), vehicle: saline with Tween-80
  T/C: 93 % of control
dose: 25.0 mg/kg/injection, schedule: Q01DX005 (ip), vehicle: saline with Tween-80
  T/C: 86 % of control

## Cn1c(=O)c2c(nc3n2CC(CF)O3)n(C)c1=O (stereo not given)
[3]
  T/C: 104 % of control
[4]
  T/C: 104 % of control
[5]
  T/C: 99 % of control

## COc1cc2c(cc1O)CCCCC2O (stereo not given)
dose: 6.25 mg/kg/injection, schedule: Q01DX009 (ip), vehicle: DMSO
  T/C: 94 % of control
dose: 12.5 mg/kg/injection, schedule: Q01DX009 (ip), vehicle: DMSO
  T/C: 102 % of control
dose: 25.0 mg/kg/injection, schedule: Q01DX009 (ip), vehicle: DMSO
  T/C: 87 % of control
[3]
  T/C: 94 % of control
[4]
  T/C: 97 % of control
[5]
  T/C: 94 % of control

## COC(CNCC(OC)OC)OC
dose: 3.13 mg/kg/injection, schedule: Q01DX009 (ip), vehicle: water
  T/C: 96 % of control
dose: 6.25 mg/kg/injection, schedule: Q01DX009 (ip), vehicle: water
  T/C: 102 % of control
dose: 12.5 mg/kg/injection, schedule: Q01DX009 (ip), vehicle: water
  T/C: 95 % of control
dose: 25.0 mg/kg/injection, schedule: Q01DX009 (ip), vehicle: water
  T/C: 102 % of control
dose: 50.0 mg/kg/injection, schedule: Q01DX009 (ip), vehicle: water
  T/C: 93 % of control
dose: 100.0 mg/kg/injection, schedule: Q01DX009 (ip), vehicle: water
  T/C: 104 % of control

## CC1CN(C(=O)Nc2ccc([N+](=O)[O-])cc2)CC(C)O1 (stereo not given)
[6]
  T/C: 96 % of control
[7]
  T/C: 87 % of control
[8]
  T/C: 89 % of control

## CN(C)c1ccc2ncc(C(N)=O)c(N)c2c1
dose: 7.5 mg/kg/injection, schedule: Q01DX005 (ip), vehicle: Klucel (hydroxypropylcellulose) (HPC)
  T/C: 91 % of control
dose: 15.0 mg/kg/injection, schedule: Q01DX005 (ip), vehicle: Klucel (hydroxypropylcellulose) (HPC)
  T/C: 99 % of control
dose: 30.0 mg/kg/injection, schedule: Q01DX005 (ip), vehicle: Klucel (hydroxypropylcellulose) (HPC)
  T/C: 97 % of control

## CCC(=O)Nc1n[nH]c(NC(=O)CC)n1
[9]
  T/C: 103 % of control
[10]
  T/C: 100 % of control
[11]
  T/C: 100 % of control

## Nc1nc(SCC(=O)O)[nH]c(=O)c1NS(=O)(=O)c1cccc([N+](=O)[O-])c1
dose: 60.0 mg/kg/injection, schedule: Q01DX005 (ip), vehicle: Klucel (hydroxypropylcellulose) (HPC)
  T/C: 96 % of control
dose: 120.0 mg/kg/injection, schedule: Q01DX005 (ip), vehicle: Klucel (hydroxypropylcellulose) (HPC)
  T/C: 93 % of control
dose: 240.0 mg/kg/injection, schedule: Q01DX005 (ip), vehicle: Klucel (hydroxypropylcellulose) (HPC)
  T/C: 93 % of control

## CCCCCCC[N+]1(CC)CCCCC1
dose: 6.25 mg/kg/injection, schedule: Q01DX009 (ip), vehicle: saline
  T/C: 104 % of control
dose: 12.5 mg/kg/injection, schedule: Q01DX009 (ip), vehicle: saline
  T/C: 106 % of control
dose: 25.0 mg/kg/injection, schedule: Q01DX009 (ip), vehicle: saline
  T/C: 115 % of control

## CN1C(=O)CC2C(=O)N(Cc3ccccc3)C(=O)C2C1=O (stereo not given)
[12]
  T/C: 101 % of control
[13]
  T/C: 101 % of control
[14]
  T/C: 96 % of control

## Cc1cc(C)c(C#N)c(Sc2nc(C)c([N+](=O)[O-])c(C)c2C#N)n1
[12]
  T/C: 96 % of control
[13]
  T/C: 100 % of control
[14]
  T/C: 102 % of control

## CCN(CC)CCNC(=O)c1cc(Cl)c(C(=O)NO)cc1OC
dose: 6.25 mg/kg/injection, schedule: Q01DX005 (ip), vehicle: Klucel (hydroxypropylcellulose) (HPC)
  T/C: 87 % of control
dose: 12.5 mg/kg/injection, schedule: Q01DX005 (ip), vehicle: Klucel (hydroxypropylcellulose) (HPC)
  T/C: 95 % of control
dose: 25.0 mg/kg/injection, schedule: Q01DX005 (ip), vehicle: Klucel (hydroxypropylcellulose) (HPC)
  T/C: 104 % of control

## CC(C)(C)/[N+]([O-])=C/C(c1ccccc1)C(/C=[N+](/[O-])C(C)(C)C)c1ccccc1 (stereo not given)
[15]
  T/C: 100 % of control
[16]
  T/C: 98 % of control
[17]
  T/C: 98 % of control

## O=C(O)CC1OCC=C2C[N+]3([O-])CCC45c6ccccc6NC4C1C2CC53 (stereo not given)
dose: 15.0 mg/kg/injection, schedule: Q01DX005 (ip), vehicle: saline with Tween-80
  T/C: 105 % of control
dose: 30.0 mg/kg/injection, schedule: Q01DX005 (ip), vehicle: saline with Tween-80
  T/C: 105 % of control
[15]
  T/C: 99 % of control and 101 % of control

## Cc1ccc(C)c(N=Nc2ccc(O)cc2)c1
[18]
  T/C: 100 % of control
[6]
  T/C: 109 % of control
dose: 50.0 mg/kg/injection, schedule: Q04DX003 (ip), vehicle: saline with Tween-80
  T/C: 104 % of control
[7]
  T/C: 100 % of control
dose: 100.0 mg/kg/injection, schedule: Q04DX003 (ip), vehicle: saline with Tween-80
  T/C: 100 % of control

## CCOP(=O)(OCC)C(=C(Cl)Cl)C(Cl)Cl
[19]
  T/C: 100 % of control and 104 % of control
[18]
  T/C: 105 % of control and 115 % of control
[6]
  T/C: 113 % of control and 118 % of control and 124 % of control
[7]
  T/C: 116 % of control

## O=C1c2ccccc2C(=O)c2cscc21
[19]
  T/C: 100 % of control
[18]
  T/C: 97 % of control
[6]
  T/C: 97 % of control
[7]
  T/C: 98 % of control

## Nc1ccccc1-c1nc2ccncc2[nH]1
dose: 25.0 mg/kg/injection, schedule: Q01DX009 (ip), vehicle: Klucel (hydroxypropylcellulose) (HPC)
  T/C: 102 % of control
[3]
  T/C: 105 % of control
[4]
  T/C: 101 % of control
[5]
  T/C: 100 % of control

## NN(Cc1ccccc1[N+](=O)[O-])c1ccccc1
[6]
  T/C: 100 % of control
[7]
  T/C: 86 % of control
[8]
  T/C: 101 % of control

## O=S1(=O)C(c2cccc(C(F)(F)F)c2)=C(O)c2cc3ccccc3nc21
dose: 6.25 mg/kg/injection, schedule: Q01DX009 (ip), vehicle: saline + Tween-80 + alcohol
  T/C: 105 % of control
dose: 12.5 mg/kg/injection, schedule: Q01DX009 (ip), vehicle: saline + Tween-80 + alcohol
  T/C: 105 % of control
dose: 25.0 mg/kg/injection, schedule: Q01DX009 (ip), vehicle: saline + Tween-80 + alcohol
  T/C: 100 % of control and 87 % of control
dose: 50.0 mg/kg/injection, schedule: Q01DX009 (ip), vehicle: saline + Tween-80 + alcohol
  T/C: 99 % of control
dose: 100.0 mg/kg/injection, schedule: Q01DX009 (ip), vehicle: saline + Tween-80 + alcohol
  T/C: 99 % of control

## ONc1cnc2ccccc2n1
[9]
  T/C: 103 % of control
[10]
  T/C: 100 % of control
[11]
  T/C: 100 % of control

## O=C1CSC(=S)N1c1ccc(I)cc1
dose: 50.0 mg/kg/injection, schedule: Q01DX009 (ip), vehicle: suspension in saline
  T/C: 101 % of control
dose: 100.0 mg/kg/injection, schedule: Q01DX009 (ip), vehicle: suspension in saline
  T/C: 101 % of control
dose: 200.0 mg/kg/injection, schedule: Q01DX009 (ip), vehicle: suspension in saline
  T/C: 114 % of control

## COC(=O)/C=C1\C=CC=CC12C(C(=O)OC)c1ccccc1C(C(=O)OC)C2C(=O)OC (stereo not given)
[19]
  T/C: 100 % of control
[18]
  T/C: 99 % of control
[6]
  T/C: 100 % of control

## CC(C)c1cccc(C(C)C)c1NC(=O)Nc1ccc(Cl)cc1Cl
[15]
  T/C: 114 % of control
[16]
  T/C: 104 % of control
[17]
  T/C: 116 % of control

## O.O.O=S(=O)(O)C(F)(F)F.[NH2-].[NH2-].[NH2-].[NH2-].[Ru+3]
dose: 12.5 mg/kg/injection, schedule: Q04DX003 (ip), vehicle: saline
  T/C: 115 % of control
dose: 25.0 mg/kg/injection, schedule: Q04DX003 (ip), vehicle: saline
  T/C: 124 % of control
dose: 100.0 mg/kg/injection, schedule: Q04DX003 (ip), vehicle: saline
  T/C: 157 % of control

## O/N=C\C[n+]1cc2ccccc2cc1/C=N\O
[12]
  T/C: 112 % of control
[13]
  T/C: 109 % of control

## COc1cc(OC)c(OC)cc1/C=C/C1=C(C)C(=O)CC(c2cc(OC)c(OC)cc2OC)C1C (stereo not given)
[1]
  T/C: 86 % of control
[2]
  T/C: 86 % of control
